Assay results as given in ChEMBL document CHEMBL4619777, “A New Class of Dengue and West Nile Virus Protease Inhibitors with Submicromolar Activity in Reporter Gene DENV-2 Protease and Viral Replication Assays” (J Med Chem, 2020).

Assays:
[1] = Cytotoxicity against human HeLa cells assessed as reduction in cell viability measured after 24 hrs by celltiter-blue assay; format: cell-based
[2] = biological target: Genome polyprotein (West Nile virus) (UniProt P06935); assay: Inhibition of West Nile virus NS2B-NS3 protease expressed in Escherichia coli BL21 lambda (DE3) cells at 50 uM using Abz-Gly-Leu-Lys-Arg-Gly-Gly-3-(NO2)Tyr as substrate preincubated for 15 mins followed by substrate addition measured for 15 mins by fluorimetric analysis relative to control
[3] = biological target: Genome polyprotein (dengue virus type 2) (UniProt P29990); assay: Inhibition of Dengue virus serotype 2 NS2B-NS3 protease transfected in human HeLa cells at 12.5 uM measured after 24 hrs by Renilla-luciferase reporter gene assay relative to control; format: cell-based
Genome polyprotein [4] = biological target: T1, Genome polyprotein (dengue virus type 2, UniProt P29990); assay: Inhibition of Dengue virus serotype 2 NS2B-NS3 protease transfected in human HeLa cells measured after 24 hrs by Renilla-luciferase reporter gene assay; format: cell-based
Trypsin = Trypsin (Homo sapiens, UniProt P07477+P07478+P35030); assay: Inhibition of trypsin (unknown origin) at 50 uM using Boc-Val-Pro-Arg-AMC as substrate preincubated for 15 mins followed by substrate addition and measured for 15 mins by fluorimetric assay relative to control; format: protein assay; settings: 0.25 h, 50 µM
Prothrombin = Prothrombin (Homo sapiens, UniProt P00734); assay: Inhibition of thrombin (unknown origin) at 25 uM using Boc-Val-Pro-Arg-AMC as substrate preincubated for 15 mins followed by substrate addition and measured for 15 mins by fluorimetric assay; settings: 0.25 h
[5] = biological target: Genome polyprotein (dengue virus type 2) (UniProt P29990); assay: Inhibition of Dengue virus serotype 2 NS2B-NS3 protease expressed in Escherichia coli BL21 lambda (DE3) cells at 50 uM using Abz-Nle-Lys-Arg-Arg-Ser-3-(NO2)Tyr as substrate preincubated for 15 mins followed by substrate addition and measured for 15 mins by FRET assay relative to control
Huh-7 = assay: Cytotoxicity against human HuH7 cells assessed as reduction in cell viability at 12 uM measured after 48 hrs by celltiter-blue assay; format: cell-based; settings: huh-7, 48 h
Genome polyprotein [6] = biological target: Genome polyprotein (West Nile virus, UniProt P06935); assay: Inhibition of West Nile virus NS2B-NS3 protease expressed in Escherichia coli BL21 lambda (DE3) cells using Abz-Gly-Leu-Lys-Arg-Gly-Gly-3-(NO2)Tyr as substrate preincubated for 15 mins followed by substrate addition measured for 15 mins by fluorimetric analysis
dengue virus type 2 = assay: Antiviral activity against DENV2 infected in human HuH7 cells assessed as reduction in virus titer at 12.5 uM measured after 48 hrs relative to control; format: functional; settings: Huh-7, 48 h
Genome polyprotein [7] = biological target: T1, Genome polyprotein; assay: Inhibition of Dengue virus serotype 2 NS2B-NS3 protease expressed in Escherichia coli BL21 lambda (DE3) cells using Abz-Nle-Lys-Arg-Arg-Ser-3-(NO2)Tyr as substrate preincubated for 15 mins followed by substrate addition and measured for 15 mins by FRET assay
[8] = Permeability of the compound assessed as drug level in donor plate at 200 uM measured after 5 hrs at pH 7.4 by PAMPA; format: ADME; settings: pH 7.4, 5 h, BLD = below limit of detection

Genome polyprotein (West Nile virus, UniProt P06935), sequence (P06935 1371-1501 limits assumed): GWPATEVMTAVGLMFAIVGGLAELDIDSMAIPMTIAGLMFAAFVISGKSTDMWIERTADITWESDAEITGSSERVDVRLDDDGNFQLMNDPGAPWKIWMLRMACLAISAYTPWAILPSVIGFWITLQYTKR
Genome polyprotein (West Nile virus, UniProt P06935), sequence (P06935 1502-2120 limits assumed): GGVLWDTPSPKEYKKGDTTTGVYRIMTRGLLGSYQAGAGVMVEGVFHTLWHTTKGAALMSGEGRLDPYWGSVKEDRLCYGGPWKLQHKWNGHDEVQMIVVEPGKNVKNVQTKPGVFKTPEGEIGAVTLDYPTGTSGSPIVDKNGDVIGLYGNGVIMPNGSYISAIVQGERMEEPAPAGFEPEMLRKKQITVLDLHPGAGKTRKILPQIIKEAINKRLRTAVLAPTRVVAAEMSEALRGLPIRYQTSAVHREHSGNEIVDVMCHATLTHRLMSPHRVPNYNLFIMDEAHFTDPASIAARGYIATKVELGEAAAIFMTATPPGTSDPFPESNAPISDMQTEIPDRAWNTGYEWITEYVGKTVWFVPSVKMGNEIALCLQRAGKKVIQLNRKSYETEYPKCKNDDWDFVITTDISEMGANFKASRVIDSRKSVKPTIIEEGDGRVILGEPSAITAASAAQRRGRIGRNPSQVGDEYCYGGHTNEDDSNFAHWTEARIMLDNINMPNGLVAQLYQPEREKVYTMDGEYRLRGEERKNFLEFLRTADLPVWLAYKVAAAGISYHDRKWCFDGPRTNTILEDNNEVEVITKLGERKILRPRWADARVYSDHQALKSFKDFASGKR
Genome polyprotein (West Nile virus), sequence (P06935 whole entry): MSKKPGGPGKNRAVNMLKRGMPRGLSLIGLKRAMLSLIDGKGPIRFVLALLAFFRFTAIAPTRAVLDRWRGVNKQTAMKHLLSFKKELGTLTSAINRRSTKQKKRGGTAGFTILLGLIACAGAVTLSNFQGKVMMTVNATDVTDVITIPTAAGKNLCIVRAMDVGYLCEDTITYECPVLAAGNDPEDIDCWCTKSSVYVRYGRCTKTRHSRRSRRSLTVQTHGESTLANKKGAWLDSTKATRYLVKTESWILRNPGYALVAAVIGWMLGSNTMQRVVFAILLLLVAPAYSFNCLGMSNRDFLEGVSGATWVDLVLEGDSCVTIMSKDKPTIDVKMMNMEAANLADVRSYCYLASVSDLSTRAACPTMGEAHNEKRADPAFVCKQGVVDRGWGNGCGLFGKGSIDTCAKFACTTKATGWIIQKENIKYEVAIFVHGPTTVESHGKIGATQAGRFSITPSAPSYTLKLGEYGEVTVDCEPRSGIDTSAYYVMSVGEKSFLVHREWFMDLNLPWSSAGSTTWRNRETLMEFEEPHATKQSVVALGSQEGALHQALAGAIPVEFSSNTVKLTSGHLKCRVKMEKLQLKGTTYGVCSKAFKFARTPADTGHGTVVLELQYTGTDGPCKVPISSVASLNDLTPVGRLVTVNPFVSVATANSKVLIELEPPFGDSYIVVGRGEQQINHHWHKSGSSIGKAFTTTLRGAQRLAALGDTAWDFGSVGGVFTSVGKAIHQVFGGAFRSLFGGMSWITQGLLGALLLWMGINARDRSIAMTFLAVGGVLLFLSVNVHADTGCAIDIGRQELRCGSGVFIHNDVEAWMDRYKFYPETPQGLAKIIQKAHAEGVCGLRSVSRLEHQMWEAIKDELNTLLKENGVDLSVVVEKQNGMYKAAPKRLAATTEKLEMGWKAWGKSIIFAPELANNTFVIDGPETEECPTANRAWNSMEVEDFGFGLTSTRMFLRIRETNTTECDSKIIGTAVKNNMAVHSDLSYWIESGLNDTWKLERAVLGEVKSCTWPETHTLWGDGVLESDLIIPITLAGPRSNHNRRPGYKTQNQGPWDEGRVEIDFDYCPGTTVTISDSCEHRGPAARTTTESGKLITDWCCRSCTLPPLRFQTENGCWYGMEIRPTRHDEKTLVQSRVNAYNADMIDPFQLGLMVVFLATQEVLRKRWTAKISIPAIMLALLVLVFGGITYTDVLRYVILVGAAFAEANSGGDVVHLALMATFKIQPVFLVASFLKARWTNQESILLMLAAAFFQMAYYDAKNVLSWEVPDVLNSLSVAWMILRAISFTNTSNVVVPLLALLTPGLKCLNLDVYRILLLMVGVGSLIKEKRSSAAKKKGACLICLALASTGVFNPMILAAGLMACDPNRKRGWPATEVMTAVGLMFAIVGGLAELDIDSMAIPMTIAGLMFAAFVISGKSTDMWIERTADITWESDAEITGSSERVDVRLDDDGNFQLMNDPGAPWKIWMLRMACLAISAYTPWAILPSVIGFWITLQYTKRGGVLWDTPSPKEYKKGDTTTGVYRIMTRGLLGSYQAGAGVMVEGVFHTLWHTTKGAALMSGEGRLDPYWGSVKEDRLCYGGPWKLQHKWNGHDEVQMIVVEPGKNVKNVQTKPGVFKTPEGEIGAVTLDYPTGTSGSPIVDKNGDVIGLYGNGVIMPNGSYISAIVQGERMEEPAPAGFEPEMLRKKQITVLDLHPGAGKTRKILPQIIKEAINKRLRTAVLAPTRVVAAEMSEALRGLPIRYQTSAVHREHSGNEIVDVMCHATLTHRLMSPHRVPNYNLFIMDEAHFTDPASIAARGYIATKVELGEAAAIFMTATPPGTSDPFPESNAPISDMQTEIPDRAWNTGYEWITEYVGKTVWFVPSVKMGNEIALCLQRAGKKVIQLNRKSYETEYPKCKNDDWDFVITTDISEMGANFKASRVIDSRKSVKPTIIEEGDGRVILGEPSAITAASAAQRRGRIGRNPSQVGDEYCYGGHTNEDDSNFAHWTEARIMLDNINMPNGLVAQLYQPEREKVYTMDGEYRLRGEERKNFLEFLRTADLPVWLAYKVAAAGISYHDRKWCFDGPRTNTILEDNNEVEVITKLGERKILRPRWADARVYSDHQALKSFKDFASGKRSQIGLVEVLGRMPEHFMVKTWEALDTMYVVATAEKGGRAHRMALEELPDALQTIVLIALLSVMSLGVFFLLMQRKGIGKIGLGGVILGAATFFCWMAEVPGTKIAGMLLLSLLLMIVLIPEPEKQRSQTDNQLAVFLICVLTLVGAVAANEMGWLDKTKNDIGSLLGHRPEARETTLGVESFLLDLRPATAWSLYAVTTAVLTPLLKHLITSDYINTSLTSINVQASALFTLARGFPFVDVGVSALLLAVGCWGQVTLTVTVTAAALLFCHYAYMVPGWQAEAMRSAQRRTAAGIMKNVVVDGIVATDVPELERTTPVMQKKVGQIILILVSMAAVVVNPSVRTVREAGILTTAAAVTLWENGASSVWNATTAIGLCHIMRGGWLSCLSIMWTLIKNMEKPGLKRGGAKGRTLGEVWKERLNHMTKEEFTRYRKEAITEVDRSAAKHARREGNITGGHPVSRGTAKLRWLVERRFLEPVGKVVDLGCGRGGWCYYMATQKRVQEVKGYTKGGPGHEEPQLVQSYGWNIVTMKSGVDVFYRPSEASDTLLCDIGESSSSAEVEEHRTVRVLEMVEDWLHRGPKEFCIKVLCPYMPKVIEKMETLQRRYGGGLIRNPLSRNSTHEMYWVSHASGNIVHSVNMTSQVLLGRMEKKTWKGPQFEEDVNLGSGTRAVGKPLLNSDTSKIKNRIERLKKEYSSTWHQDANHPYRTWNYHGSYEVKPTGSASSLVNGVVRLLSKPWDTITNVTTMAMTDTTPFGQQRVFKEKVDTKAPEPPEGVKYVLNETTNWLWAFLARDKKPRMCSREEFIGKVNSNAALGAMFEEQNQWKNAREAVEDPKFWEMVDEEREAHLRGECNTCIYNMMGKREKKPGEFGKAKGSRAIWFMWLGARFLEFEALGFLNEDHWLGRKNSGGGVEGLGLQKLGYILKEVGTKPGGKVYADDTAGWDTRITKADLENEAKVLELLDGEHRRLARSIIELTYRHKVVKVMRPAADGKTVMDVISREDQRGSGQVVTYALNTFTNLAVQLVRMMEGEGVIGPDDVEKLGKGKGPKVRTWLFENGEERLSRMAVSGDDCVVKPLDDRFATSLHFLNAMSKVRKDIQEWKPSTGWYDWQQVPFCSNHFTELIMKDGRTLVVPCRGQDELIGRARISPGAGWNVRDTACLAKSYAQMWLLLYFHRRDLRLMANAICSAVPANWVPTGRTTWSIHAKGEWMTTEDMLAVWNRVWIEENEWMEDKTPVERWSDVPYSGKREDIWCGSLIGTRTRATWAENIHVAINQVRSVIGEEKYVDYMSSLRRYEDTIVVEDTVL

SMILES | CC50 at 24 h [1] [µM] | inhibition [2] [%] | inhibition [3] [%] | EC50 (Genome polyprotein [4]) [µM] | inhibition (INH) (Trypsin) | inhibition (INH) (Prothrombin) | inhibition [5] [%] | Activity (Huh-7) | IC50 (Genome polyprotein [6]) [µM] | inhibition at 12.5 µM (dengue virus type 2) [%] | IC50 (Genome polyprotein [7]) [µM] | Drug uptake [8]
CCCCCC(=O)N[C@H](C(=O)NCc1ccc(N)nc1)c1ccc(OCc2ccccc2)cc1.O=C(O)C(F)(F)F | > 50 | 37.8 | 57 | 13 | Not Active | Not Active | 22.6 | – | – | – | – | –
CCCCCC(=O)N[C@H](C(=O)NCc1ccc(NC(=N)N)nc1)c1ccc(OCc2ccccc2)cc1.O=C(O)C(F)(F)F | > 50 | 96.8 | 67.7 | 5.9 | Not Active | Not Active | 93.9 | Non-Toxic | 23 | 31.5 | 19 | –
N=C(N)Nc1ccc(CNC(=O)[C@@H](NC(=O)c2ccc(OCc3ccccc3)cc2)c2ccc(OCc3ccccc3)cc2)cc1.O=C(O)C(F)(F)F | > 12.5 | 98.7 | 69.8 | 2.1 | Not Active | Not Active | 106 | Non-Toxic | 7.1 | 27.4 | 4.4 | Bld
CCCCCC(=O)N[C@H](C(=O)Nc1ccc2[nH]ncc2c1)c1ccc(OCc2ccccc2)cc1 | > 50 | 26 | 65.4 | 6.9 | Not Active | Not Active | 22.4 | – | – | – | – | –
CCCCCC(=O)N[C@H](C(=O)NCc1ccc(NC(=N)N)cc1)c1ccc(OCc2ccc(C(F)(F)F)cc2)cc1.O=C(O)C(F)(F)F | > 50 | 100 | 66 | 3 | Not Active | Not Active | 96.3 | Non-Toxic | 12 | 60.3 | 7.4 | –
CCCCCC(=O)N[C@@H](C(=O)NCc1ccc(NC(=N)N)cc1)c1ccc(OCc2ccc(Cl)c(Cl)c2)cc1.O=C(O)C(F)(F)F | > 50 | 101 | 51 | 16 | Not Active | Not Active | 97.3 | – | 8.3 | – | 5.7 | –
N=C(N)Nc1ccc(CNC(=O)[C@@H](NC(=O)c2ccc(-c3ccc(Cl)cc3)cc2)c2ccc(OCc3ccccc3)cc2)cc1.O=C(O)C(F)(F)F | > 50 | 99.9 | 56.6 | 7.1 | Not Active | Not Active | 98.7 | Non-Toxic | 3.7 | 79.9 | 2 | –
CCCCCC(=O)N[C@H](C(=O)NCc1ccc(CNC(=N)N)cc1)c1ccc(OCc2ccccc2)cc1.O=C(O)C(F)(F)F | > 50 | 98.6 | 66.3 | 6.3 | Not Active | Not Active | 104 | Non-Toxic | 37 | 79.5 | 14 | –
CCCCCC(=O)N[C@H](C(=O)NCCCCCCN)c1ccc(OCc2ccccc2)cc1 | > 50 | < 10 | 45.8 | 13 | Not Active | Not Active | 18.1 | – | – | – | – | –
CCCCCC(=O)N[C@H](C(=O)NCc1cccc(CN)c1)c1ccc(OCc2ccccc2)cc1 | > 12.5 | 85.4 | 71 | 4.2 | Not Active | Not Active | 97.2 | – | 27 | – | 30 | –
CCCCCCCCCC(=O)N[C@H](C(=O)NCc1ccc(NC(=N)N)cc1)c1ccc(OCc2ccccc2)cc1.O=C(O)C(F)(F)F | > 50 | 102 | 65.8 | 2.3 | Not Active | Not Active | 99.8 | – | 5 | – | 2.3 | Bld
COc1cccc(COc2ccc(C(=O)N[C@H](C(=O)NCc3ccc(NC(=N)N)cc3)c3ccc(OCc4ccccc4)cc3)cc2)c1.O=C(O)C(F)(F)F | > 12.5 | 102 | 67.6 | 2.9 | Not Active | Not Active | 98.4 | Non-Toxic | 7.4 | 21.9 | 4.7 | Bld
CCCCCC(=O)N[C@H](C(=O)NCc1ccc(CN(C)C)cc1)c1ccc(OCc2ccccc2)cc1 | > 12.5 | < 10 | 65.7 | 6.7 | Not Active | Not Active | < 10 | – | – | – | – | –
N=C(N)Nc1ccc(CNC(=O)[C@@H](NC(=O)Cc2ccc(-c3ccccc3)cc2)c2ccc(OCc3ccccc3)cc2)cc1.O=C(O)C(F)(F)F | > 50 | 99.3 | 16.3 | 20 | Not Active | Not Active | 101 | – | 1.8 | – | 1.3 | Bld
N=C(N)NCc1ccc(CNC(=O)[C@H](NC(=O)c2ccc(Oc3ccccc3)cc2)c2ccc(OCc3ccc(Cl)c(Cl)c3)cc2)cc1.O=C(O)C(F)(F)F | > 50 | 99.6 | 36 | – | Not Active | Not Active | 99.8 | – | 5.5 | – | 2.5 | Bld
CCCCCC(=O)N[C@H](C(=O)NCc1ccc(NC(=N)N)cc1)c1ccc(OCc2c(Cl)cccc2Cl)cc1.O=C(O)C(F)(F)F | > 50 | 101 | 41.5 | – | Not Active | Not Active | 97.5 | – | 6.2 | – | 2.9 | Bld
